This is an account of results in patent publication US5244795A, “Processes for preparing cholesterol lowering compounds” (Merck & Co., Inc., priority 1992, dated 1993).

Test in all cases: FISP disc diffusion assay
Holding throughout (format): cell-based
Holding throughout (conditions): 250 μg/ml in CH2Cl2

The subject of assay [1] is Alternaria solani. The arrangement: key: F: clear zone, fuzzy edges; S: slightly hazy zone (some growth observed throughout zone); H: hazy zone (considerable growth observed throughout zone); V: very hazy zone (zone of inhibition is barely discernable); R: zone displays a ring of resistant growth; no qualifier: clear zone throughout, sharp edges. The source says:
(§1) The FISP assay employs disc diffusion susceptibility testing methods to generate a spectrum of activity against a panel of representative yeasts, filamentous fungi and bacteria.
(§2) The filamentous fungi used in the assay were Penicillium sp. Aspergillus niger, Trichoderma sp., Phoma sp., Trichoderma lignorum, Fusarium oxysporum, Ustilago maydis, Ceratocystis ulmi, Alternaria soloni, Verticillium serrae, Botrytis allii, Scopulariopsis communis, Cephalosporium sp., Cercospora beticola, Rhizomucor miehei, Aspergillus flavus and Aspergillus fumigatus.
(§3) For carrying out the assay, seeded assay plates are prepared in the following manner according to the type of assay strain.
(§4) Inocula for filamentous fungi are prepared by scraping the surface of stock plates maintained on potato dextrose agar with a moistened sterile dacron swab. The spores and mycelia are then suspended in 10 milliliters of sterile potato dextrose broth and adjusted to 65 percent transmission at 660 nm.
(§5) Assay plates for the yeasts and filamentous fungi are prepared by diluting the inoculum into appropriate molten agar medium, cooled to 45° C. to obtain a final concentration of 4 percent.
(§6) The seeded agar media thus prepared are dispensed into petri dishes for assays (11 ml per dish).
(§7) The samples to be tested for production of antifungal agent are applied to 6.2 mm filter paper discs (25 μl/disc) and air dried at 24° C. When the sample to be tested is crude broth, it may be centrifuged prior to application. The discs bearing the material to be tested are then applied employing sterile conditions to the seeded assay plates. The assay plates are then incubated at either 28° C. or 37° C. for 24 hours. In one of the assays for Bacillus subtilis, the sample is applied to a disc previously impregnated with 4M potassium chloride at 25 μl/disc and then air dried.
(§8) Following incubation, the inhibition zones are measured and recorded. The measurements are made from the extreme edge where growth differs from the background zone. The zones are noted as to appearance as fuzzy edge and clear center, hazy throughout, slightly hazy, very hazy or ringed.
(§9) FISP data is reported as the diameter (in mm.) of the zone of inhibition of growth in agar diffusion assays. The zone is determined by measuring growth that differs from the background lawn. A qualifier is also added to describe the zone quality as listed below: no qualifier: clear zone throughout, sharp edges

Assay [2] relates to Aspergillus flavus. Details: key: F: clear zone, fuzzy edges; S: slightly hazy zone (some growth observed throughout zone); H: hazy zone (considerable growth observed throughout zone); V: very hazy zone (zone of inhibition is barely discernable); R: zone displays a ring of resistant growth; no qualifier: clear zone throughout, sharp edges.
From the text: as §1, §2, §3, §4, §5, §6, §7, §8, §9

In assay [3] the test system is Cercospora beticola. Details: key: F: clear zone, fuzzy edges; S: slightly hazy zone (some growth observed throughout zone); H: hazy zone (considerable growth observed throughout zone); V: very hazy zone (zone of inhibition is barely discernable); R: zone displays a ring of resistant growth; no qualifier: clear zone throughout, sharp edges.
From the text: as §1, §2, §3, §4, §5, §6, §7, §8, §9

Assay [4] has as its system Penicillium sp. Details: key: F: clear zone, fuzzy edges; S: slightly hazy zone (some growth observed throughout zone); H: hazy zone (considerable growth observed throughout zone); V: very hazy zone (zone of inhibition is barely discernable); R: zone displays a ring of resistant growth; no qualifier: clear zone throughout, sharp edges.
From the text: as §1, §2, §3, §4, §5, §6, §7, §8, §9

Assay [5] deals with Phoma sp. The arrangement: key: F: clear zone, fuzzy edges; S: slightly hazy zone (some growth observed throughout zone); H: hazy zone (considerable growth observed throughout zone); V: very hazy zone (zone of inhibition is barely discernable); R: zone displays a ring of resistant growth; no qualifier: clear zone throughout, sharp edges.
From the text: as §1, §2, §3, §4, §5, §6, §7, §8, §9

Assay [6] deals with Rhizomucor miehei. The arrangement: key: F: clear zone, fuzzy edges; S: slightly hazy zone (some growth observed throughout zone); H: hazy zone (considerable growth observed throughout zone); V: very hazy zone (zone of inhibition is barely discernable); R: zone displays a ring of resistant growth; no qualifier: clear zone throughout, sharp edges.
From the text: as §1, §2, §3, §4, §5, §6, §7, §8, §9

Assay [7] deals with Trichoderma lignorum. Details: key: F: clear zone, fuzzy edges; S: slightly hazy zone (some growth observed throughout zone); H: hazy zone (considerable growth observed throughout zone); V: very hazy zone (zone of inhibition is barely discernable); R: zone displays a ring of resistant growth; no qualifier: clear zone throughout, sharp edges.
From the text: as §1, §2, §3, §4, §5, §6, §7, §8, §9

Assay [8] deals with Trichoderma sp. Details: key: F: clear zone, fuzzy edges; S: slightly hazy zone (some growth observed throughout zone); H: hazy zone (considerable growth observed throughout zone); V: very hazy zone (zone of inhibition is barely discernable); R: zone displays a ring of resistant growth; no qualifier: clear zone throughout, sharp edges.
From the text: as §1, §2, §3, §4, §5, §6, §7, §8, §9

Assay [9] deals with Ustilago maydis. The arrangement: key: F: clear zone, fuzzy edges; S: slightly hazy zone (some growth observed throughout zone); H: hazy zone (considerable growth observed throughout zone); V: very hazy zone (zone of inhibition is barely discernable); R: zone displays a ring of resistant growth; no qualifier: clear zone throughout, sharp edges.
From the text: as §1, §2, §3, §4, §5, §6, §7, §8, §9

Assay [10] deals with Verticillium serrae. The arrangement: key: F: clear zone, fuzzy edges; S: slightly hazy zone (some growth observed throughout zone); H: hazy zone (considerable growth observed throughout zone); V: very hazy zone (zone of inhibition is barely discernable); R: zone displays a ring of resistant growth; no qualifier: clear zone throughout, sharp edges.
From the text: as §1, §2, §3, §4, §5, §6, §7, §8, §9

The test system of assay [11] is Bacillus subtilis. As to the method: as §1
The bacteria employed in the assay are Streptomyces sp., Acholeplasma laidlawii and Bacillus subtilis.
as §3
(§10) Inocula for yeasts and bacterial strains are prepared from overnight broth cultures then diluted into potato dextrose agar to a final concentration of either 40 percent or 70 percent transmission at 660 nm.
Seeded agar for Bacillus subtilis are prepared from a commercially available spore suspension which is diluted directly into molten agar (45° C.) to obtain a final concentration of 0.1 percent.
as §6
The samples to be tested for production of antifungal agent are applied to 6.2 mm filter paper discs (25 μl/disc) and air dried at 24° C. When the sample to be tested is crude broth, it may be centrifuged prior to application. […]
Following incubation, the inhibition zones are measured and recorded. […]
FISP data is reported as the diameter (in mm.) of the zone of inhibition of growth in agar diffusion assays. The zone is determined by measuring growth that differs from the background lawn. […]

Assay [12] has as its system Saccharomyces cerevisiae. The arrangement: key to zone quality qualifier: F: clear zone, fuzzy edges; S: slightly hazy zone (some growth observed throughout zone); H: hazy zone (considerable growth observed throughout zone); V: very hazy zone (zone of inhibition is barely discernable); R: zone displays a ring of resistant growth; no qualifier: clear zone throughout, sharp edges.
From the text: as §1
The yeasts employed in the assay are Saccharomyces cerevisiae, Candida albicans, Candida tropicalis, Candida rugosa, Brettanomyces bruxellensis, Torulospora hansenii, Candida guilliermondi, Candida pseudotropicalis, Torulopsis glabrata, Cryptococcus albidus, Cryptococcus laurentii and Kluyveromyces fragilis.
as §3, §10
For three strains of Candida albicans and one strain of Saccharomyces cerevisiae, sterile saline is employed in place of potato dextrose broth.
as §5, §6, §7, §8, §9

In the case of `CC(/C=C/C=C(\C)C(O)C(C)C(=O)O[C@H]1C[C@H](C)C=C2C=C[C@@]3(C)O[C@@H](O)CC(=O)[C@]3(C)[C@H]21)=C\C=C\C(=O)O` (stereo partly drawn) [Compound A], the zone quality qualifier entry in [1] is on record as “F”; in assay [2] it was “H”; in assay [3], “S”; in [4], “H”; in [5], “S”; in assay [6], “H”. Further, the zone quality qualifier result is “F” in [7]; “S” in assay [8]; “V” in assay [9]; “S” in assay [10]; “H” in assay [12]; “H” in assay [12] (YNB). For the same compound, the “diameter of the zone of inhibition of growth” value in [11] (KCl (disc impregnated with 4M potassium chloride)) is given as 0 mm. In addition, the zone of inhibition at 250 µg/mL was 0 mm in assay [11] (Bacillus subtilis, read-out: diameter of the zone of inhibition of growth) and 0 mm in [12] (Saccharomyces cerevisiae, read-out: diameter of the zone of inhibition of growth).
